The results in this text go back to patent US11396499B2, “Lysosomal acid lipase assay” (University of Washington, priority 2018, dated 2022).

The first test has as its target T1, lysosomal acid lipase (LAL) (Homo sapiens, UniProt P38571).
T1 construct: from tissue; host or cells: dried blood spots (DBS) from healthy adults, healthy children and LAL-deficient patients
T1 sequence (P38571 77-399): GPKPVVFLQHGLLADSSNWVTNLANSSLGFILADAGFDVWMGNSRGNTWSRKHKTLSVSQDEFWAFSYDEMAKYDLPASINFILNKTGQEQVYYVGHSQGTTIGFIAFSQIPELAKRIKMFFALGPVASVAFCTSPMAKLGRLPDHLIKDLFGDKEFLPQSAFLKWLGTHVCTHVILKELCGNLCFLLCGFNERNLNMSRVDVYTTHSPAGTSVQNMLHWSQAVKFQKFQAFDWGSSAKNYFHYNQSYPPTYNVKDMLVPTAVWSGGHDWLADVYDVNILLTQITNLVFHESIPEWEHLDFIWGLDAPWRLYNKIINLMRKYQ
In words: LAL assay development: replacement of cardiolipin by phospholipids and of Triton X-100 by detergent. Format: biochemical. As to conditions: 2.5 mmol/L sodium taurodeoxycholate. The procedure:
A variety of phospholipids were evaluated as replacements for cardiolipin, which was used in the original LAL assay described by Hamilton et al. (Clin Chim Acta 2012; 413:1207-10). The following phospholipids were tested individually at 0.1 mmol/L: 1,2-dioleoyl-phosphatidylethanolamine, 1,2-dioleoyl-phosphatidylmethanol, 1,2-dioleoyl-phosphatidylcholine, 1,2-dioleoyl-phosphatidylserine, brain phosphatidylethanolamine, 1,2-heptadecyl-phosphatidylcholine, and 1,2-lauryl-phosphatidylcholine.
The original LAL assay described by Hamilton et al. (Clin Chim Acta 2012; 413:1207-10) used Triton X-100 as the detergent, which was replaced this with sodium taurodeoxycholate because this detergent largely remains in the aqueous phase following liquid-liquid extraction with ethyl acetate (thus minimizing injection of large amounts of detergent onto the UPLC column). […] Thus, 2.5 mmol/L was chosen for all subsequent studies.
For the compound `C[C@H](CCC(=O)NCCS(=O)(=O)[O-])[C@H]1CC[C@H]2[C@@H]3CC[C@@H]4C[C@H](O)CC[C@]4(C)[C@H]3C[C@H](O)[C@]12C.[Na+]` [sodium taurodeoxycholate], the “decrease of LAL activity on replacement of Triton X-100” value is 20%.

The test is the same for the next values; noted with them: phospholipid tested individually at 0.1 mmol/L as replacement for cardiolipin.
On to `CCCCCCCCCCCCCCCCC(=O)OC[C@H](COP(=O)([O-])OCC[N+](C)(C)C)OC(=O)CCCCCCCCCCCCCCCC` [1,2-heptadecyl-phosphatidylcholine], for which the “change of LAL activity over that measured with cardiolipin” value (shortened to “change of LAL activity over that”) is listed as “None of these phospholipids led to any substantial increase in LAL”.

For `CCCCCCCC/C=C\CCCCCCCC(=O)OC[C@H](COP(=O)([O-])OCC[N+](C)(C)C)OC(=O)CCCCCCC/C=C\CCCCCCCC` [1,2-dioleoyl-phosphatidylcholine], the “change of LAL activity over that” value was “None of these phospholipids led to any substantial increase in LAL”.

Turning to `CCCCCCCC/C=C\CCCCCCCC(=O)OCC(COP(=O)(O)OC)OC(=O)CCCCCCC/C=C\CCCCCCCC` (stereo not shown) [1,2-dioleoyl-phosphatidylmethanol], the “change of LAL activity over that” value is given as “None of these phospholipids led to any substantial increase in LAL”.

In the case of `CCCCCCCCCCCC(=O)OC[C@H](COP(=O)([O-])OCC[N+](C)(C)C)OC(=O)CCCCCCCCCCC` [1,2-lauryl-phosphatidylcholine], the “change of LAL activity over that” value is given as “None of these phospholipids led to any substantial increase in LAL”.

For `CCCCCCCC/C=C\CCCCCCCC(=O)OC[C@H](COP(=O)(O)OCCN)OC(=O)CCCCCCC/C=C\CCCCCCCC` [1,2-dioleoyl-phosphatidylethanolamine], the “change of LAL activity over that” value was “None of these phospholipids led to any substantial increase in LAL”.

For the compound `CCCCCCCC/C=C\CCCCCCCC(=O)OC[C@H](COP(=O)(O)OC[C@H](N)C(=O)O)OC(=O)CCCCCCC/C=C\CCCCCCCC` [1,2-dioleoyl-phosphatidylserine], the “change of LAL activity over that” value was “None of these phospholipids led to any substantial increase in LAL”.
